Values of other authors, collected in patent US20140234405A1 (priority 2013, published 2014).
No end group written: not given here.

Legend:
[1] = tested on: gastrin; settings: 90 mg/day for 6 years or greater; cited from earlier work
[2] = tested on: type 2 diabetes; settings: 12 weeks, cited from earlier work
[3] = tested on: human pancreatic ductal tissue; settings: in vitro, without epidermal growth factor; cited from earlier work
[4] = tested on: beta cell mass; settings: after infusion of gastrin in rats; cited from earlier work

## Cc1c(OCC(F)(F)F)ccnc1C[S+]([O-])c1nc2ccccc2[nH]1 (stereo not shown) [Lansoprazole, 1H-Benzimidazole,2-[[[3-methyl-4-(2,2,2-trifluoroethoxy)-2-pyridinyl]methyl]sulfinyl]-2-[[[3-Methyl-4-(2,2,2-trifluoroethoxy)-2-pyridyl]-methyl]sulfinyl]benzimidazole]
[1]
  gastrin levels relative to normal: ~7 fold
  safety profile: sustained safety profile

## COc1ccc2nc([S@@+]([O-])Cc3ncc(C)c(OC)c3C)[nH]c2c1 [esomeprazole]
[2]; patients with type 2 diabetes
  insulin secretion, glycaemic control, cardiovascular disease biomarkers: did not improve
[2]; control group had 16.3% reduction
  change in insulin AUC: no decline in insulin AUC
[2]; 20 type 2 diabetes patients, 40 mg
  increase in area under the curve (AUC) of gastrin: 9 fold

## gastrin: gastrointestinal hormone demonstrated to result in new beta cell formation (QGPWLEEEEEAYGWMDF; ends and bridges not checked; UniProt P01350 76-92, looked up)
[3]
  beta cell neogenesis from human pancreatic ductal tissue: induce beta cell neogenesis
[4]
  beta cell mass: doubling beta cell mass
